{
  "source": "patent US20050053625A1",
  "about": "“Method of treating viral infections” (priority 2001, published 2005)",
  "key": {"WHV": {"tested_on": "WHV", "settings": "cited from earlier work"}, "HBV M protein": {"tested_on": "HBV M protein", "format": "cell-based", "settings": "for secretion of the M protein: indicated concentrations, three days, FIG. 4", "method": "Hep G2 cells were transfected with an M only expression vector and the next day the cells divided equally into 6 well trays. Compound was added one day latter at the indicated concentrations and the media changed every two days. The presence of sub-viral particles in the medium was detected via the Abbott Diagnostics Auszyme Monoclonal Diagnostic Kit as per manufacture's directions. For Graph: Y-axis is the OD at 492. X-axis indicates the compounds or cells used in the assay.\nHep G2 cells transfected with the HBV M expression vector were treated with the glucosidase inhibitor NB-DNJ (4.5 mM and 6 days latter the amount of M protein associated with the culture medium (secreted) and the cells (retained) determined by ELISA. See text for more details. For graph: x-axis, Drug treatment and location of protein; for y-axis, % of HBV M protein as compared to untreated\nHep G2 cells were transfected with the M only expression vector and seeded as daughter flasks into 6 well trays. Following 4 days of treatment of glucosidase inhibitor (NB-DNJ (4.5 mM)), drug was either removed (in samples labels as —R) or left on as a control. Day 0 is the time in which drug was removed. […] Day 3 and Day 5 are days after drug removal. For Graph: Y-axis is the OD at 492. X-axis indicates the compounds or cells used in the assay. UN=untreated sample; Un-R is the untreated rebound sample; NB=N-butyl-DNJ; NB-R=N-butyl-DNJ rebound sample.\nHBV M protein secretion is sensitive to glucosidase inhibition. Our previous work has determined that the secretion of HBV sub-viral particles containing the M protein was sensitive to glucosidase inhibition. (Mehta et al., 1997). That is, when Hep G2 2.215 cells were treated with the glucosidase inhibitor NB-DNJ, purified sub-viral particles appeared to lack the M protein. However, it was unclear if this was the result of the M protein's sensitivity to glucosidase inhibition or required some other viral factor. To test this hypothesis, an expression vector (pCMV-MS^−X) directs the expression of HBV M, but no other viral protein, was created. This “M only” expression vector was then used to determine if the M protein itself, in the absence of other viral functions, was sensitive to glucosidase inhibition. In addition, an expression vector, unable to express “M”, but able to express “S” was made on the same plasmid backbone as the “M” only vector, as was used as a control (pCMV-M^−SX). For these studies three imino sugars were used: N-butyl-DNJ, N-nonyl-DNJ and N-nonyl-DGJ. N-butyl-DNJ is our standard glucosidase inhibitor and has been used by several labs for over 10 years (Carlson et al.,1995, Block et al., 1994). […] Briefly, Hep G2 cells were transfected with the expression vectors pCMV HBV MS^−X and pCMV HBV M^−SX and subsequently seeded into fresh 6 well trays. The transfected cells were treated with the indicated concentrations of NB-DNJ, NN-DNJ or NN-DGJ (as a negative control) and three days latter the media analyzed for the presence of the HBV M or HBV S protein as described in Mehta et al, 2001. […] Fore example, concentrations of NN-DNJ which have no impact upon glycan inhibition, as determined by glycan analysis or α-1-acid-glycoprotein secretion, had no effect upon HBV M protein secretion (data not shown). In contrast to the effect of the glucosidase inhibitors on M protein secretion, the secretion of the HBV S protein was insensitive to either NB-DNJ or NN-DNJ providing further proof that the S protein is insensitive to glucosidase inhibition (data not shown; Block et al., 1994, Mehta et al., 1997, Werr & Prange, 1998). To determine if the secretion of the HBV M protein was prevented by another non-glucosidase mechanism, other compounds with the same alkyl side chain (tail) but altered imino sugar head groups, were synthesized. For example, NN-DGJ has the same chain length as NN-DNJ but is not a glucosidase inhibitor. […]"}, "glucosidase": {"tested_on": "glucosidase", "experiment": "Glucosidase / glycan processing inhibition in cells", "format": "cell-based"}, "[1]": {"tested_on": "bovine viral diarrhea virus (BVDV)", "settings": "comparison of N-butyl and N-nonyl DNJ; U.S. Pat. No. 6,465,487; cited from earlier work"}, "[2]": {"tested_on": "bovine viral diarrhea virus (BVDV)", "experiment": "BVDV in mammalian cells in tissue culture", "format": "cell-based", "excerpt": "We have discovered that cytotoxicity resulting from exposure of mammalian cells in tissue culture to bovine viral diarrhea virus (BVDV) is prevented by addition of a glucosidase inhibitor to the tissue culture medium. The glucosidase inhibitors useful according to the present invention include, but are not limited to a derivative of 1,5-dideoxy-1,5-imino-D-glucitol (DNJ), in particular, N-butyl-DNJ (NBDNJ). […] Because BVDV is an accepted tissue culture model of hepatitis C virus (HCV) (Henzler, H.-J. and K. Kaiser (1998) Nature Biotech 16:1077-1078), the compositions and methods described herein for inhibiting morphogenesis of BVDV are also useful for inhibiting morphogenesis of HCV.\nThe substituents on the basic 1,5-dideoxy-1,5-imino-D-glucitol can influence the potency of the compound as an antiviral agent and additionally can preferentially target the molecule to one organ rather than another. […] Methods for comparing the potencies of various substituted compounds are provided in Example 1. […] Methods for determining preferential targeting properties of variously substituted DNJs is provided in Example 8 and FIG. 8 in U.S. Pat. No. 6,465,487."}, "HBV [3]": {"tested_on": "HBV", "settings": "cited from earlier work"}, "HIV": {"tested_on": "HIV", "settings": "relative to cells not exposed; cited from earlier work"}, "HBV [4]": {"tested_on": "HBV", "experiment": "Secretion of HBV viral particles from Hep G2.2.15 cells (Proteinase K/DNase method)", "format": "cell-based, Hepatitis B virus", "settings": "4.5 mM, 7 days, Hep G2 2.2.15 cells, FIG. 3", "method": "Virus secretion into the media was detected by a method that would differentiate between enveloped and un-enveloped DNA. Glucosidase inhibitors reduce the secretion of enveloped virus. Enveloped virus is resistant to Proteinase K/Dnase treatment; un-enveloped virus is not. (+) or (−) indicates the addition of DNase. See text for more details. From left to right: Untreated; 3TC (3.5 μM); […] (4.5 mM).\nInhibition of the ER a-glucosidases inhibits the secretion of enveloped HBV. The first glycan processing events are the removal of the terminal glucose residues in the ER by α-glucosidase I and II (FIG. 2). The α-glucosidase inhibitor N-butyldeoxynojirimycin (NB-DNJ) has been used to study the role of glucose processing in several proteins including human immunodeficiency virus (HIV-1) gp120 (Fisher et al., 1995) and the enzyme tyrosinase which is involved in melanin biosynthesis (Petrescu et al., 1996). […] Hep G2 2.2.15 cells were either left untreated or treated with 3TC (3.5 μM) or the glucosidase inhibitor NB-DNJ (4.5 mM) and 7 days latter the amount of enveloped virus detected in the culture medium by a method that would differentiate between enveloped and un-enveloped virus (Wei et al., 1997). This method realizes upon the resistance of enveloped HBV to limited Proteinse K treatment (Wei et al., 1997). […]"}, "HBV [5]": {"tested_on": "HBV", "settings": "chronic HBV patients; cited from earlier work"}, "HCV": {"tested_on": "HCV", "settings": "cited from earlier work"}},
  "data": [
    {"compound": "Cc1cn([C@H]2O[C@@H](CO)[C@H](O)[C@H]2F)c(=O)[nH]c1=O", "note": "[L-FMAU, 1-(2-Fluro-5-Methy-B-L-Arabinofuranosyl)-Uracil]", "values": [
      {"measurement": "decrease in the amount of serum WHsAg", "setting": "WHV; long term treatment", "result": 10, "unit": "fold"},
      {"measurement": "immune responses developed", "setting": "WHV; woodchucks, drug alone", "result": "limited cellular and humoral immune responses"}
    ]},
    {"compound": "CCCCCCCCCN1C[C@H](O)[C@@H](O)[C@@H](O)[C@H]1CO", "note": "[NN-DGJ, reference compound]", "values": [
      {"measurement": "secretion of the M protein", "setting": "HBV M protein", "result": "but not NN-DGJ which does not inhibit glucosidase, reduces the amount of M detected in the medium"},
      {"measurement": "glucosidase inhibition", "setting": "glucosidase; negative control", "result": "does not inhibit glucosidase"}
    ]},
    {"compound": "CCCCN1C[C@H](O)[C@@H](O)[C@H](O)[C@H]1CO", "note": "[NB-DNJ, N-butyl-1,5-dideoxy-1,5-imino-D-glucitol]", "values": [
      {"measurement": "potency in inhibiting the intracellular production of BVDV virus", "setting": "[1]", "result": "less potent"},
      {"measurement": "toxicity toward host cells", "setting": "[2]; conditions inhibiting BVDV-induced cytotoxicity", "result": "little, if any, toxicity"},
      {"measurement": "BVDV-induced cytotoxicity", "setting": "[2]; tissue culture", "result": "inhibition of BVDV-induced cytotoxicity was achieved"},
      {"measurement": "secretion of HBV viral particles", "setting": "HBV [3]; Hep G2.2.15 cells", "result": "prevents the secretion of HBV viral particles"},
      {"measurement": "egress of subviral particles", "setting": "HBV [3]; stable transfected HepG2 cells", "result": "does not prevent egress"},
      {"measurement": "egress of the mature HBV virion", "setting": "HBV [3]; stable transfected HepG2 cells", "result": "prevents egress"},
      {"measurement": "infectivity of virus particles released from HIV-infected cells", "setting": "HIV", "result": "greatly reduced"},
      {"measurement": "amount of M protein in the culture medium after 4 days of treatment", "setting": "HBV M protein; 4.5 mM, 4 days, FIG. 6", "result": "substantial decrease"},
      {"measurement": "HBV M protein associated with the cells (retained)", "setting": "HBV M protein; 4.5 mM, 6 days, ELISA, FIG. 5", "result": "retention of the HBV M protein"},
      {"measurement": "HBV M protein associated with the culture medium (secreted)", "setting": "HBV M protein; 4.5 mM, 6 days, ELISA, FIG. 5", "result": "reduction in the amount of HBV M protein associated with the culture medium"},
      {"measurement": "level of M protein in the culture medium after compound removal", "setting": "HBV M protein; after 4 days treatment, drug removed, FIG. 6", "result": "remained depressed until the 5th day"},
      {"measurement": "secretion of the M protein", "setting": "HBV M protein", "result": "prevented the secretion of the M protein"},
      {"measurement": "M protein secretion at lower concentrations", "setting": "HBV M protein; lower concentrations, which inhibit lower levels of glucosidase", "result": "able to inhibit M protein secretion"},
      {"measurement": "effect on cell number or viability", "setting": "HBV M protein; sustained reduction experiment, data not shown", "result": "not due to an effect on cell number or viability"},
      {"measurement": "time to return of glucosidase enzyme function after removal of inhibitor", "setting": "glucosidase; not shown or Tan et al, 1994", "result": "less than 3 hours"}
    ]},
    {"compound": "OC[C@H]1NC[C@H](O)[C@@H](O)[C@@H]1O", "note": "[DNJ, 1,5-dideoxy-1,5-imino-D-glucitol]", "values": [
      {"measurement": "secretion of enveloped virus versus un-enveloped virus", "setting": "HBV [4]", "result": "inhibits the secretion of enveloped virus more effectively than un-enveloped virus"}
    ]},
    {"compound": "Alpha-interferon", "values": [
      {"measurement": "treated patients achieving certain serological milestones", "setting": "HBV [5]", "result": "7-40%"},
      {"measurement": "patients with long-term improvement", "setting": "HCV", "result": 5, "unit": "%"}
    ]}
  ]
}
